Assay results published in patent US7888063B2, “Unnatural reactive amino acid genetic code additions” (The Scripps Research Institute, priority 2003, dated 2011).

Assays:
position 33 of hSOD = assay: LC-MS/MS of tryptic peptide VY*GSIK of mutant hSOD: identity of the amino acid incorporated; design: species or system Saccharomyces cerevisiae; conditions: from the signal-to-noise ratio of the peptide spectra; hSOD position 33
Method: The identity of the amino acid incorporated was determined by subjecting a tryptic digest of the mutant protein to liquid chromatography and tandem mass spectrometry. For example, for mass spectrometry protein bands were visualized by colloidal Coomassie stain. Gel bands corresponding to wild-type and mutant SOD were excised from polyacrylamide gels, sliced into 1.5-mm cubes, reduced and alkylated, then subjected to trypsin hydrolysis essentially as described. See, e.g., A. Shevchenko, et al., (1996), Analytical Chemistry 68, 850-858. Tryptic peptides containing the unnatural amino acid were analyzed by nanoflow reversed-phase HPLC/μESI/MS with an LCQ ion trap mass spectrometer. Liquid chromatography tandem mass spectrometry (LC-MS/MS) analysis was performed on a Finnigan LCQ Deca ion trap mass spectrometer (Thermo Finnigan) fitted with a Nanospray HPLC (Agilent 1100 series). See, e.g., FIG. 10, Panels A-H. […]
For example, the wild-type and mutant hSOD were purified using nickel affinity column and protein bands were visualized by colloidal Coomassie stain. […] Tryptic peptides containing the unnatural amino acid were analyzed by nanoflow reversed-phase HPLC/μESI/MS with an LCQ ion trap mass spectrometer. […]

[1] = tested on: GAL4 responsive HIS3, URA3 and lacZ reporters in MaV203; assay: Growth of selection strain MaV203:pGADGAL4(2TAG) harboring synthetase plasmids on selective media (-ura, -his + 3-AT, 5-FOA, X-GAL); type: cell-based, Saccharomyces cerevisiae; conditions: MaV203 containing pGADGAL4(T44TAG, R110TAG)
Method: S. cerevisiae strain MaV203, (Invitrogen) is MATα; leu2-3,112; trp1 109;his3 Δ200;ade2-101;cyh2^R;cyh1^R;GAL4 Δ; gal80 Δ; GAL1::lacZ; HIS3UASGAL1::HIS3@LYS2; SPAL10UASGAL1::URA3. Yeast media were purchased from Clontech, 5-FOA and X-GAL were from Invitrogen and 3-AT was from BIO 101. YPER (Yeast Protein Extraction Reagent) and ONPG were purchased from Pierce Chemicals. Plasmid transformations were performed by the PEG/Lithium actetate method (see, e.g., D. Burke, et al., (2000) Methods in Yeast Genetics. Cold Spring Harbor Laboratory Press, Cold Spring Harbor, N.Y.) and transformants selected on the appropriate synthetic complete dropout media. To test the phenotypes conferred by various plasmid combinations on MaV203 yeast colonies from synthetic complete dropout plates of each transformation were resuspended in 15 μL of sterile water and streaked on the selective media of interest. […] The OD660 of 100 μL of cells, and several dilutions of cells were recorded in parallel in a 96 well microtiter plate. […] Upon color development, cells were pelleted by centrifugation, the supernatant transferred to a clean 96 well microtiter plate (Nunclon, cat.# 167008), and the A420 recorded. […] ONPG hydrolysis was calculated using the equation: beta-galactosidase units=[…]. […] Spectrophotometric readings were performed on a SPECTRAmax190 plate reader. […]

| Molecule | incorporation purity (position 33 of hSOD) [%] | growth phenotype on 3-AT plates [1] |
| --- | --- | --- |
| CC(=O)c1ccc(C[C@H](N)C(=O)O)cc1 [p-acetyl-L-phenylalanine] | ≥ 99.8 |  |
| EcTyrRS: Escherichia coli tyrosyl-tRNA synthetase, expressed with tRNACUA in yeast (protein, UniProt P0AGJ9 2-424, looked up) Tyrosine--tRNA ligase: ASSNLIKQLQERGLVAQVTDEEALAERLAQGPIALYCGFDPTADSLHLGHLVPLLCLKRFQQAGHKPVALVGGATGLIGDPSFKAAERKLNTEETVQEWVDKIRKQVAPFLDFDCGENSAIAANNYDWFGNMNVLTFLRDIGKHFSVNQMINKEAVKQRLNREDQGISFTEFSYNLLQGYDFACLNKQYGVVLQIGGSDQWGNITSGIDLTRRLHQNQVFGLTVPLITKADGTKFGKTEGGAVWLDPKKTSPYKFYQFWINTADADVYRFLKFFTFMSIEEINALEEEDKNSGKAPRAQYVLAEQVTRLVHGEEGLQAAKRITECLFSGSLSALSEADFEQLAQDGVPMVEMEKGADLMQALVDSELQPSRGQARKTIASNAITINGEKQSDPEYFFKEEDRLFGRFTLLRRGKKNYCLICWK |  | grew robustly on plates with 3-AT concentrations up to 75 mM |
